Source: patent publication US20230270824A1, “INTERFERON-BASED CANCER TREATMENT METHOD AND PHARMACEUTICAL COMPOSITION” (XIAMEN AMOYTOP BIOTECH CO., LTD., priority 2019, published 2023)
Read-outs that look alike come from different tables or passages of the source.

Tests used:
[1] = tested on: transplanted liver cancer H22; test: Interferon combined with epirubicin, transplanted liver cancer H22 in mice (Example 10); format: in vivo, BALB/c mice; conditions: epirubicin only, 3.5 mg/kg/w i.p.
Description: The manufacturer of epirubicin was Beijing Union Pharmaceutical Factory.
Statistical tests were all two-sided tests.

[2] = tested on: transplanted breast cancer 4T1; test: Interferon combined with gemcitabine, transplanted breast cancer 4T1 in mice (Example 9); format: in vivo, BALB/c mice; conditions: gemcitabine only, 60 mg/kg i.p. once a week, 53 days after tumor inoculation, 60 mg/kg
Protocol: In this example, a comparative study on the efficacy of PEG-mIFN-α4 intermittent administration (once every 48 hours for 3 consecutive times, then drug withdrawal for 144 hours; for 5 rounds), PEG-mIFN-α4 continuous administration (once every 48 hours for 25 consecutive times), PEG-mIFN-α4 in combination with gemcitabine (PEG-mIFN-α4: once every 48 hours for 3 consecutive times, then drug withdrawal for 240 hours, 4 rounds; gemcitabine: once a week) on transplanted breast cancer 4T1 in mice was performed.
(§1) On the day when the tumor was inoculated, they were randomly divided into PEG-mIFN-α4 continuous administration group (N=24, female 12, male 12), PEG-mIFN-α4 intermittent administration group (N=24, female 12, male 12), the normal saline control group (N=24, female 12, male 12), the gemcitabine only group (N=24, female 12, male 12), and PEG-mIFN-α4 combined with gemcitabine group (N=24, female 12, male 12).
(§2) For the PEG-mIFN-α4 intermittent administration group, PEG-mIFN-α4 was administered once every 48 hours for 3 consecutive times, then drug withdrawal for 144 hours; for 5 rounds. For the PEG-mIFN-α4 continuous administration group, PEG-mIFN-α4 was administered once every 48 hours. For the PEG-mIFN-α4 combined with gemcitabine group, PEG-mIFN-α4 was administered once every 48 hours for 3 consecutive times, then drug withdrawal for 240 hours; for 4 rounds; and gemcitabine was administered once a week. For the gemcitabine only group, gemcitabine was administered once a week. For the saline control group, equal volume of saline was administered. Gemcitabine was injected intraperitoneally, 60 mg/kg.
(§3) SAS9.4 software was used for comparing the difference in mortality, and the statistical tests were all two-sided tests.

[3] = tested on: transplanted liver cancer H22; test: Interferon combined with gemcitabine, transplanted liver cancer H22 in mice (Example 5); format: in vivo, BALB/c mice; conditions: gemcitabine only, 60 mg/kg i.p. once a week, 108 days observation
Protocol: In this example, a comparative study on the efficacy of PEG-mIFN-α4 intermittent administration (once every 48 hours for three consecutive times, then drug withdrawal for 144 hours; for 8 rounds), PEG-mIFN-α4 continuous administration (once every 48 hours for 42 consecutive times), PEG-mIFN-α4 in combination with gemcitabine (PEG-mIFN-α4: once every 48 hours for three consecutive times, then drug withdrawal for 240 hours, 6 rounds; gemcitabine: once a week) on H22 transplanted liver cancer in mice was performed.
as §1
Gemcitabine was injected intraperitoneally, 60 mg/kg.
as §2, with “for three” for “for 3”, “for 8” for “for 5”, “for 6” for “for 4”, “administered.” for “administered. Gemcitabine was injected intraperitoneally, 60 mg/kg.”
(§4) Survival analysis was performed for all groups to compare the differences between groups.

[4] = tested on: transplanted lung cancer LLC; test: Interferon combined with gemcitabine, transplanted lung cancer LLC in mice (Example 6); format: in vivo, C57BL/6N mice; conditions: gemcitabine only, 60 mg/kg i.p. once a week, Day 64 post tumor inoculation, 60 mg/kg
Protocol: In this example, a comparative study on the efficacy of PEG-mIFN-α4 intermittent administration (once every 48 hours for four consecutive times, then drug withdrawal for 192 hours; for 5 rounds), PEG-mIFN-α4 continuous administration (once every 48 hours for 32 consecutive times), PEG-mIFN-α4 in combination with gemcitabine (PEG-mIFN-α4: once every 48 hours for four consecutive times, then drug withdrawal for 360 hours, 4 rounds; gemcitabine: once a week) on transplanted […] LLC in mice was performed.
On the day when the tumor was inoculated, they were randomly divided into PEG-mIFN-α4 continuous administration group (N=26, female 13, male 13), PEG-mIFN-α4 intermittent administration group (N=26, female 13, male 13), the normal saline control group (N=26, female 13, male 13), the gemcitabine only group (N=26, female 13, male 13), and PEG-mIFN-α4 combined with gemcitabine group (N=26, female 13, male 13).
as §2, with “4” for “3”, “192” for “144”, “[…]” for “5”, “360” for “240”
as §3

[5] = tested on: transplanted colorectal cancer CT26; test: Interferon combined with gemcitabine, transplanted colorectal cancer CT26 in mice (Example 7); format: in vivo, BALB/c mice; conditions: gemcitabine only, 60 mg/kg i.p. once a week, 110 days observation, 60 mg/kg
Protocol: In this example, a comparative study on the efficacy of PEG-mIFN-α4 intermittent administration (once every 48 hours for three consecutive times, then drug withdrawal for 144 hours; for 11 rounds), PEG-mIFN-α4 continuous administration (once every 48 hours for 55 consecutive times), PEG-mIFN-α4 in combination with gemcitabine (PEG-mIFN-α4: once every 48 hours for three consecutive times, then drug withdrawal for 240 hours, 8 rounds; gemcitabine: once a week) on transplanted colorectal cancer CT26 in mice was performed.
The anticancer agent is Gemcitabine (Jiangsu HAOSEN Pharmaceutical).
as §1
Gemcitabine was injected intraperitoneally, 60 mg/kg. […] For the PEG-mIFN-α4 intermittent administration group, PEG-mIFN-α4 was administered once every 48 hours for three consecutive times, then drug withdrawal for 144 hours; for 11 rounds. For the PEG-mIFN-α4 continuous administration group, PEG-mIFN-α4 was administered once every 48 hours. For the PEG-mIFN-α4 combined with gemcitabine group, PEG-mIFN-α4 was administered once every 48 hours for three consecutive times, then drug withdrawal for 240 hours; for 8 rounds; and gemcitabine was administered once a week. For the gemcitabine only group, gemcitabine was administered once a week. For the saline control group, equal volume of saline was administered.
as §4

[6] = tested on: transplanted melanoma B16; test: Interferon combined with gemcitabine, transplanted melanoma B16 in mice (Example 8); format: in vivo, C57BL/6N mice; conditions: gemcitabine only, 60 mg/kg i.p. once a week, 48 days after tumor inoculation, 60 mg/kg
Protocol: In this example, a comparative study on the efficacy of PEG-mIFN-α4 intermittent administration (once every 48 hours for 3 consecutive times, then drug withdrawal for 240 hours; for 4 rounds), PEG-mIFN-α4 continuous administration (once every 48 hours for 24 consecutive times), PEG-mIFN-α4 in combination with gemcitabine (PEG-mIFN-α4: once every 48 hours for 3 consecutive times, then drug withdrawal for 240 hours, 4 rounds; gemcitabine: once a week) on transplanted melanoma B16 in mice was performed.
On the day when the tumor was inoculated, they were randomly divided into PEG-mIFN-α4 continuous administration group (N=28, female 14, male 14), PEG-mIFN-α4 intermittent administration group (N=28, female 14, male 14), the normal saline control group (N=28, female 14, male 14), the gemcitabine only group (N=28, female 14, male 14), and PEG-mIFN-α4 combined with gemcitabine group (N=28, female 14, male 14).
as §2, with “240” for “144”, “4” for “5”
as §3

[7] = tested on: transplanted liver cancer H22; conditions: oxaliplatin only, 10 mg/kg/w i.p.
Protocol: 6-8 weeks old, 18-22 g SPF grade BALB/c mice were subcutaneously inoculated with liver cancer H22 tumor cells (1×10^6 cells/mL, 0.2 ml/mouse) in the right forelimb axillary. 3 days after tumor inoculation, they were randomly divided into groups, with 28 mice in each group (fifty-fifty female and male mice), including normal saline control group, oxaliplatin only group, and PEG-mIFN-α4 combined with oxaliplatin group.
The administration was started on the day after grouping, once a week. PEG-mIFN-α4 was injected subcutaneously on the back of the neck, and oxaliplatin was injected intraperitoneally, in a dose of 10 mg/kg each time. The normal saline control group was administered an equal volume of normal saline.
All groups were subjected to survival curve analysis, and the median survival time was compared.

[8] = tested on: transplanted liver cancer H22; conditions: paclitaxel only, 10 mg/kg/w
Protocol: In this example, BALB/c mice were purchased from Beijing Vital River Laboratory Animal Technology Co., Ltd., and the H22 mouse liver cancer cell line was purchased from the China Center for Type Culture Collection (CCTCC). The manufacturer of paclitaxel was Qilu Pharmaceutical (Hainan) Co., Ltd.
6-8 weeks old, 18-22 g SPF grade BALB/c mice were subcutaneously inoculated with liver cancer H22 tumor cells (1×10^6 cells/mL, 0.2 ml/mouse) in the right forelimb axillary. 3 days after tumor inoculation, they were randomly divided into groups, with 28 mice in each group (fifty-fifty female and male mice), including normal saline control group, paclitaxel only group, and PEG-mIFN-α4 combined with paclitaxel group.
The administration was started on the day after grouping, once a week. PEG-mIFN-α4 was injected subcutaneously on the back of the neck, in a dose of 1 mg/mouse each time, and oxaliplatin was injected intraperitoneally, in a dose of 10 mg/kg each time.
All groups were subjected to survival curve analysis, and the median survival time was compared. SAS 9.4 and office2010 software were used for statistical analysis. Statistical tests were all two-sided tests.

[9] = tested on: mouse fibroblast/encephalomyocarditis virus (L929/EMCV); test: Specific activity by mouse fibroblast/encephalomyocarditis virus (L929/EMCV) cytopathic inhibition method; format: cell-based; conditions: stock solution; commercial mIFN-α4 (R&D) as the standard
Protocol: The bacterial endotoxin content of the deglycosylated mIFN-α4 stock solution was determined by the Limulus reagent method as lower than 60 EU/mg. specific activity was determined as 5.4×10^8 U/mg by using the commercial mIFN-α4 (R&D, catalog number 12115-1) as the standard, and by using the mouse fibroblast/encephalomyocarditis virus (L929/EMCV) cytopathic inhibition method.
The bacterial endotoxin content of the PEG-mIFN-α4 stock solution was determined by the Limulus reagent method as lower than 15 EU/mg. Specific activity was determined as 6.1×10^6 U/mg by using the commercial mIFN-α4 (R&D, catalog number 12115-1) as the standard, and by using the mouse fibroblast/encephalomyocarditis virus (L929/EMCV) cytopathic inhibition method.

COc1cccc2c1C(=O)c1c(O)c3c(c(O)c1C2=O)C[C@@](O)(C(=O)CO)C[C@@H]3O[C@H]1C[C@H](N)[C@@H](O)[C@H](C)O1 [Epirubicin]
Median survival period (Time after tumor inoculation, days) [1]: 15.0 days
Median survival period (Time after tumor inoculation, days) ([1]; listed as epirubicin): 15 days

Nc1ccn([C@@H]2O[C@H](CO)[C@@H](O)C2(F)F)c(=O)n1 [Gemcitabine, reference compound]
Mortality [2]: 87.5%
Mortality ([2]; listed as gemcitabine): 87.5%
Mean survival period (days post tumor inoculation) [3]: 58.5 days
Mortality [4]: 80.8%
Mortality ([4]; listed as gemcitabine): 80.8%
Mean survival period (days post tumor inoculation) [5]: 99.0 days
Mean survival period (days post tumor inoculation) ([5]; listed as gemcitabine): 89.0 days
Mortality [6]: 89.3%
Mortality ([6]; listed as gemcitabine): 89.3%

O=C1[O][Pt]2([NH][C@@H]3CCCC[C@H]3[NH]2)[O]C1=O [Oxaliplatin]
Median survival period (Time after tumor inoculation, days) [7]: 12.5 days

CC(=O)O[C@H]1C(=O)[C@@]2(C)[C@H]([C@H](OC(=O)c3ccccc3)[C@]3(O)C[C@H](OC(=O)[C@H](O)[C@@H](NC(=O)c4ccccc4)c4ccccc4)C(C)=C1C3(C)C)[C@]1(OC(C)=O)CO[C@@H]1C[C@@H]2O [Paclitaxel]
Median survival period (Time after tumor inoculation, days) [8]: 17.0 days
Median survival period (Time after tumor inoculation, days) ([8]; listed as paclitaxel): 17 days

B1: deglycosylated mIFN-α4: recombinant mouse interferon α4 (GenBank NP_034634) expressed in Pichia pastoris, glycosyl groups removed by glycosidase (protein, UniProt P07351 25-186, looked up)
Interferon alpha-4: CDLPHTYNLGNKRALTVLEEMRRLPPLSCLKDRKDFGFPLEKVDNQQIQKAQAILVLRDLTQQILNLFTSKDLSATWNATLLDSFCNDLHQQLNDLKACVMQEPPLTQEDSLLAVRTYFHRITVYLRKKKHSLCAWEVIRAEVWRALSSSTNLLARLSEEKE
modifications: deglycosylated
notes: recombinant mouse interferon α4 (GenBank NP_034634) expressed in Pichia pastoris, glycosyl groups removed by glycosidase
Specific activity [9]: 5.4×10^8 U/mg
